According to patent US5468486A, “Vaccine containing a protein alkaloid conjugate for the treatment of fescue toxicosis” (priority 1994, dated 1995):

Test system: antiserum produced against the ergonovine KLH conjugate
Assay: Competitive ELISA
Assay type: binding, rabbit
Conditions: for IC50 / Concentration (ng/ml) of 50% A (A50): predicted value for 50% maximal absorbance, linear regression, antiserum 1:1000, HSA-ergonovine coated plates; for IC50: read-out: Concentration (μM) of 50% A; for Cross Reactivity (%): relative to ergonovine
Description: Antiserum preparation: Three female New Zealand white rabbits were immunized with the HSA-ergonovine conjugate and two with the KLH-ergonovine conjugate. Initially, each rabbit was injected with 1 mg of the respective conjugate in 1 ml of phosphate buffered saline that had been emulsified with an equal amount of Freund's complete adjuvant. Booster injections of 0.2 mg of conjugate per rabbit, emulsified with Freund's incomplete adjuvant, were given at 5 and 10 weeks after the first injections. The rabbits were bled 8 and 16 days after each booster injection. Serum was collected after two cycles of low speed centrifugation. Serum from each rabbit was pooled before testing in the competitive enzyme linked immunosorbent assay (ELISA).
Competitive ELISA: Duplicate polystyrene ELISA plates were numbered and rinsed once with distilled water. The HSA-ergonovine conjugate [[…] in carbonate coating buffer (0.5μsodium carbonate, pH 9.6)] was pipetted into each well ([…]). After 2H at 30° C. the plates were washed 4 times quickly with physiologically buffered saline (PBS) Tween (0.02M phosphate, 0.15M NaCl, 3 mM KC1+0.05% TWEEN 20, pH 7.3). All subsequent rinse steps were done with PBS-Tween. Serial dilutions were made of […] compounds used in the competitive assay. All dilutions were made in PBS-Tween. These compounds and their initial concentrations were: agroclavine 0.5 mM, ergocryptine at 100 μM, unconjugated ergonovine at 1 μM, ergotamine at 100 μM, ergovaline at 10 μM, lysergol at 10 mM, dihydroergotamine at 200 μM and IAA at 1 mM. After placing 100 μl of each dilution in duplicate wells, an additional 100 μl of antiserum, produced against the ergonovine KLH conjugate, was added to each well at a dilution of 1:1000 and mixed. The plates were incubated for 2 H at 30° C. and again rinsed 4 times quickly. Protein-A alkaline phosphatase (0.5 μg/ml in PBS-Tween) was placed in wells (200 μl/well) and incubated for 2 H at 30° C. The plates were again rinsed 4 times. Substrate, SIGMA 104® phosphatase substrate (5 mg/ml), in 10% diethanolamine, pH 9.6 was added to each well (150 μl/well). The reaction was stopped after 30 min. with 3M NaOH (75 μl/well). The plates were read on a DYNATECH MINIREADER II® reader. Mean values were calculated from duplicate wells per plate and duplicate plates were averaged. From these values a percent maximal absorbance level was calculated.

| Structure (SMILES) | IC50 [µM] | Concentration (ng/ml) of 50% A (A50) [ng/mL] | Concentration (ng/ml) of 50% A (A50) (listed as ergocrytine) | Cross Reactivity (%) | Cross Reactivity (%) (listed as ergocrytine) | Concentration (ng/ml) of 50% A (A50) (listed as Ergovaline) | Cross Reactivity (%) (listed as Ergovaline) | Cross Reactivity (%) (listed as Lysergol) |
| --- | --- | --- | --- | --- | --- | --- | --- | --- |
| CC1=C[C@@H]2c3cccc4[nH]cc(c34)C[C@H]2N(C)C1 [agroclavine] | 3.2 |  |  |  |  |  |  |  |
| CN1C[C@H](C(=O)N[C@]2(C)O[C@@]3(O)[C@@H]4CCCN4C(=O)[C@H](Cc4ccccc4)N3C2=O)C[C@@H]2c3cccc4[nH]cc(c34)C[C@H]21 [dihydroergotamine] |  | 6833 |  |  |  |  |  |  |
| CC(C)C[C@H]1C(=O)N2CCC[C@H]2[C@]2(O)O[C@](NC(=O)[C@@H]3C=C4c5cccc6[nH]cc(c56)C[C@H]4N(C)C3)(C(C)C)C(=O)N12 [ergocryptine] | 0.59 | 33 | below 100 ng/ml | 5 | ≥ 2 |  |  |  |
| C[C@@H](CO)NC(=O)[C@@H]1C=C2c3cccc4[nH]cc(c34)C[C@H]2N(C)C1 [ergonovine] | 0.05 | 1.6 |  | 100 |  |  |  |  |
| CN1C[C@H](C(=O)N[C@]2(C)O[C@@]3(O)[C@@H]4CCCN4C(=O)[C@H](Cc4ccccc4)N3C2=O)C=C2c3cccc4[nH]cc(c34)C[C@H]21 [ergotamine] | 0.4 |  |  |  |  |  |  |  |
| CC(C)[C@H]1C(=O)N2CCC[C@H]2[C@]2(O)O[C@@](C)(NC(=O)[C@@H]3C=C4c5cccc6[nH]cc(c56)C[C@H]4N(C)C3)C(=O)N12 [ergovaline] | 0.15 | 8 |  | 20 |  | below 100 ng/ml | ≥ 2 |  |
| CN1C[C@H](CO)C=C2c3cccc4[nH]cc(c34)C[C@H]21 [lysergol] | 3.7 | 940 |  | 4 |  |  |  | less than 1% |
